Test results as given in the RepoRT retention time repository (doi:10.1039/c6ra10883k).

Test: Phenomenex Kinetex XB-C18, 100 × 2.1 mm, 1.7 µm, 35 °C, 0.3 mL/min, estimated dead time 0.73 min; A: water + 0.1% formic acid; B: acetonitrile + 0.1% formic acid; gradient (min/%B) 0/5 1/5 2/10 9/33 15/46 16/70 21/90 22/90
Details: stereoisomer not certain

SMILES	LC retention time
COc1cc(C=CCO)cc(OC)c1OC1OC(CO)C(O)C(O)C1O (configuration not stated)	3.9 min
COc1cc(C=CC(=O)O)ccc1O	5.97 min
O=c1c(O)c(-c2ccc(O)c(O)c2)oc2cc(OC3OC(CO)C(O)C(O)C3O)cc(O)c12 (configuration not stated)	6.12 min
CC(C)=CCCC(C)(OC1OC(CO)C(O)C(O)C1O)C1CC(C)C2(C)C3CC(OC4OC(CO)C(O)C(O)C4OC4OC(CO)C(O)C(O)C4O)C4C(C)(C)C(O)CCC4(C)C3CC(O)C12 (configuration not stated)	7.5 min
CC1OC(OCC2OC(Oc3c(-c4ccc(O)c(O)c4)oc4cc(O)cc(O)c4c3=O)C(O)C(O)C2O)C(O)C(O)C1O (configuration not stated)	5.99 min
CC(C)=CCCC(C)(O)C1CCC2(C)C1C(O)CC1C3(C)CCC(O)C(C)(C)C3C(OC3OC(CO)C(O)C(O)C3OC3OC(C)C(O)C(O)C3O)CC12C (configuration not stated)	10.9 min
CC(C)=CCCC(C)(OC1OC(COC2OCC(O)C(O)C2O)C(O)C(O)C1O)C1CCC2(C)C1C(O)CC1C3(C)CCC(OC4OC(CO)C(O)C(O)C4OC4OC(CO)C(O)C(O)C4O)C(C)(C)C3CCC12C (configuration not stated)	11.6 min
CC(C)=CCCC(C)(OC1OC(COC2OC(CO)C(O)C(O)C2O)C(O)C(O)C1O)C1CCC2(C)C1C(O)CC1C3(C)CCC(OC4OC(CO)C(O)C(O)C4OC4OC(COC(=O)CC(=O)O)C(O)C(O)C4O)C(C)(C)C3CCC12C (configuration not stated)	11.1 min
O=c1cc(-c2ccc(O)c(O)c2)oc2cc(O)cc(O)c12	8.91 min
CC(C)=CCCC(C)(OC1OC(COC2OC(CO)C(O)C(O)C2O)C(O)C(O)C1O)C1CCC2(C)C1C(O)CC1C3(C)CCC(O)C(C)(C)C3C(OC3OC(CO)C(O)C(O)C3O)CC12C (configuration not stated)	7.09 min
CC1OC(OCC2OC(Oc3c(-c4ccc(O)cc4)oc4cc(O)cc(O)c4c3=O)C(O)C(O)C2O)C(O)C(O)C1O (configuration not stated)	6.6 min
CC(C)=CCCC(C)(OC1OC(COC2OC(COC3OCC(O)C(O)C3O)C(O)C(O)C2O)C(O)C(O)C1O)C1CCC2(C)C1C(O)CC1C3(C)CCC(OC4OC(CO)C(O)C(O)C4OC4OC(CO)C(O)C(O)C4O)C(C)(C)C3CCC12C (configuration not stated)	10.2 min
CCCC=C1OC(=O)C2=C1CCC=C2	16.4 min
CC1(C)CCC2(C(=O)OC3OC(CO)C(O)C(O)C3O)CCC3(C)C(=CCC4C5(C)CCC(OC6OC(C(=O)O)C(O)C(O)C6OC6OC(CO)C(O)C(O)C6O)C(C)(C)C5CCC43C)C2C1 (configuration not stated)	11.3 min
O=C(C=Cc1ccc(O)cc1)C1=C(O)C2=C(OC3(C2)OCC(O)C(O)C3O)C(O)(C2OC(CO)C(O)C(O)C2O)C1=O (configuration not stated)	6.76 min
O=c1c(O)c(-c2ccc(O)cc2)oc2cc(O)cc(O)c12	10.3 min
CC(C)=CCCC(C)(O)C1CCC2(C)C1C(O)CC1C3(C)CCC(O)C(C)(C)C3C(O)CC12C (configuration not stated)	16.6 min
CC(C)=CCCC(C)(OC1OC(CO)C(O)C(O)C1O)C1CCC2(C)C1C(O)CC1C3(C)CCC(O)C(C)(C)C3C(OC3OC(CO)C(O)C(O)C3O)CC12C (configuration not stated)	8.07 min
C=C(CCC=C(C)C)C1CCC2(C)C1C(O)CC1C3(C)CCC(O)C(C)(C)C3C(OC3OC(CO)C(O)C(O)C3O)CC12C (configuration not stated)	14.9 min
CC(C)=CCCC(C)(OC1OC(CO)C(O)C(O)C1O)C1CCC2(C)C1C(O)CC1C3(C)CCC(O)C(C)(C)C3CCC12C (configuration not stated)	17.3 min
CC(C)=CCCC(C)(OC1OC(CO)C(O)C(O)C1O)C1CCC2(C)C1C(O)CC1C3(C)CCC(O)C(C)(C)C3C(OC3OC(CO)C(O)C(O)C3OC3OCC(O)C(O)C3O)CC12C (configuration not stated)	7.68 min

SMILES	LC retention time
CC(C)=CCCC(C)(OC1OC(COC2OC(CO)C(O)C(OC3OCC(O)C(O)C3O)C2O)C(O)C(O)C1O)C1CCC2(C)C1C(O)CC1C3(C)CCC(OC4OC(CO)C(O)C(O)C4OC4OC(CO)C(O)C(O)C4OC4OCC(O)C(O)C4O)C(C)(C)C3CCC12C (configuration not stated)	9.85 min
O=C(C=Cc1ccc(O)cc1)C1=C(O)C2=C(OC(C(O)C(O)C(O)CO)C2C2=C(O)C(=C(O)C=Cc3ccc(O)cc3)C(=O)C(O)(C3OC(CO)C(O)C(O)C3O)C2=O)C(O)(C2OC(CO)C(O)C(O)C2O)C1=O (configuration not stated)	6.67 min
CC(C)=CCCC(C)(OC1OC(COC2OC(CO)C(O)C2O)C(O)C(O)C1O)C1CCC2(C)C1C(O)CC1C3(C)CCC(OC4OC(CO)C(O)C(O)C4OC4OC(CO)C(O)C(O)C4O)C(C)(C)C3CCC12C (configuration not stated)	11.2 min
CC(C)=CCCC(C)(OC1OC(CO)C(O)C(O)C1O)C1CCC2(C)C1C(O)CC1C3(C)CCC(OC4OC(CO)C(O)C(O)C4OC4OC(CO)C(O)C(O)C4O)C(C)(C)C3=CC(O)C12C (configuration not stated)	8.82 min
CC(C)=CCCC(C)(OC1OC(CO)C(O)C(O)C1O)C1CCC2(C)C1C(O)CC1C3(C)CCC(OC4OC(CO)C(O)C(O)C4OC4OC(COC(=O)CC(=O)O)C(O)C(O)C4O)C(C)(C)C3CCC12C (configuration not stated)	12.7 min
O=C(O)CC(C1=C(O)C(=C(O)C=Cc2ccc(O)cc2)C(=O)C(O)(C2OC(CO)C(O)C(O)C2O)C1=O)c1ccc(O)cc1 (configuration not stated)	7.95 min
C=C(CCC=C(C)C)C1CCC2(C)C1C(O)CC1C3(C)CCC(O)C(C)(C)C3C(OC3OC(CO)C(O)C(O)C3OC3OCC(O)C(O)C3O)CC12C (configuration not stated)	14 min
CC(C)=CCCC(C)(OC1OC(CO)C(O)C(O)C1O)C1CCC2(C)C1C(O)CC1C3(C)CCC(OC4OC(CO)C(O)C(O)C4OC4OC(CO)C(O)C(O)C4O)C(C)(C)C3CCC12C (configuration not stated)	12.4 min
CC(C)=CCCC(C)(OC1OC(COC2OC(CO)C(O)C(O)C2O)C(O)C(O)C1O)C1CCC2(C)C1C(O)CC1C3(C)CCC(OC4OC(CO)C(O)C(O)C4OC4OC(CO)C(O)C(O)C4O)C(C)(C)C3CCC12C (configuration not stated)	10.9 min
O=c1cc(-c2ccc(O)c(O)c2)oc2cc(OC3OC(CO)C(O)C(O)C3O)cc(O)c12 (configuration not stated)	6.28 min
CCCC=C1OC(=O)C2=C1CCC1C3C=C4C(=O)OC(=CCCC)C4(CC3)C21 (configuration not stated)	18.2 min
O=C1C(=C(O)C=Cc2ccc(O)cc2)C(O)=C(C2OC(CO)C(O)C(O)C2O)C(=O)C1(O)C1OC(CO)C(O)C(O)C1O (configuration not stated)	4.17 min
O=c1c(O)c(-c2ccc(O)c(O)c2)oc2cc(O)cc(O)c12	8.93 min
CC(C)=CCCC(C)(OC1OC(CO)C(O)C(O)C1O)C1CCC2(C)C1C(O)CC1C3(C)CCC(OC4OC(COC5OC(CO)C(O)C(O)C5O)C(O)C(O)C4O)C(C)(C)C3CCC12C (configuration not stated)	13.2 min
CC(C)=CCCC(C)(O)C1CCC2(C)C1C(O)CC1C3(C)CCC(O)C(C)(C)C3C(OC3OC(CO)C(O)C(O)C3OC3OC(CO)C(O)C(O)C3O)CC12C (configuration not stated)	10.1 min
O=C(C=Cc1ccc(O)c(O)c1)OC1CC(O)(C(=O)O)CC(OC(=O)C=Cc2ccc(O)c(O)c2)C1O (configuration not stated)	6.92 min
CC(C)=CCCC(C)(OC1OC(CO)C(O)C(O)C1O)C1CCC2(C)C1C(O)CC1C3(C)CCC(OC4OC(CO)C(O)C(O)C4OC4OC(CO)C(O)C(O)C4O)C(C)(C)C3C(O)CC12C (configuration not stated)	9.5 min
CC(C)=CCCC(C)(OC1OC(CO)C(O)C(O)C1O)C1CCC2(C)C1C(O)CC1C3(C)CCC(OC4OC(CO)C(O)C(O)C4O)C(C)(C)C3CCC12C (configuration not stated)	15.4 min
CC(C)=CCCC(C)(OC1OC(COC2OC(CO)C(O)C(OC3OCC(O)C(O)C3O)C2O)C(O)C(O)C1O)C1CCC2(C)C1C(O)CC1C3(C)CCC(OC4OC(CO)C(O)C(O)C4OC4OC(CO)C(O)C(O)C4O)C(C)(C)C3CCC12C (configuration not stated)	10.5 min
CC(C)=CCCC(C)(OC1OC(CO)C(O)C(O)C1O)C1CCC2(C)C1C(O)CC1C3(C)CCC(O)C(C)(C)C3C(OC3OC(COC4OC(CO)C(O)C(O)C4O)C(O)C(O)C3O)CC12C (configuration not stated)	7.28 min
O=c1c(OC2OC(CO)C(O)C(O)C2O)c(-c2ccc(O)cc2)oc2cc(O)cc(O)c12 (configuration not stated)	6.86 min
